Data reported in US20230142338A1, “THIOPHENYL DERIVATIVES USEFUL FOR MODULATING NUCLEIC ACID SPLICING” (REMIX THERAPEUTICS INC., priority 2020, published 2023).

Experiments:
Assay type in all cases: cell-based
[1] = system: SMN2 CJ mRNA; assay: Gene panel canonical junction qPCR assay: SMN2; settings: Table 3, concentration having 50% response in CJ decrease, read-out: SMN2 IC50 (decrease in CJ mRNA levels)
Procedure: (§1) Compounds described herein were used to modulate RNA transcript abundance in cells. The expression of a target mRNA was measured by detecting the formation of an exon-exon junction in the canonical transcript (CJ). A compound mediated exon-inclusion event was detected by observing an increase in formation of a new junction with an alternative exon (AJ). Real-time qPCR assays were used to detect these splicing switches and interrogate the potency of various compounds towards different target genes. A high-throughput real time quantitative PCR (RT-qPCR) assay was developed to measure these two isoforms of the mRNA (CJ and AJ) for an exemplary gene, HTT, together with a control housekeeping gene, GAPDH or GUSB or PPIA, used for normalization. Briefly, the A673 or K562 cell line was treated with various compounds described herein (e.g., compounds of Formula (I)). After treatment, the levels of the HTT mRNA targets were determined from each sample of cell lysate by cDNA synthesis followed by qPCR.
(§2) The A673 cell line was cultured in DMEM with 10% FBS. Cells were diluted with full growth media and plated in a 96-well plate (15,000 cells in 100 ul media per well). The plate was incubated at 37° C. with 5% CO2 for 24 hours to allow cells to adhere. An 11-point 3-fold serial dilution of the compounds was made in DMSO then diluted in media in an intermediate plate. Compounds were transferred from the intermediate plate to the cell plate with the top dose at a final concentration of 10 uM in the well. Final DMSO concentration was kept at or below 0.25%. The cell plate was returned to the incubator at 37° C. with 5% CO2 for an additional 24 hours.
(§3) The K562 cell line was cultured in IMDM with 10% FBS. For K562, cells were diluted with full growth media and plated in either a 96-well plate (50,000 cells in 50 uL media per well) or a 384-well plate (8,000-40,000 cells in 45 uL media per well). An 11-point 3-fold serial dilution of the compounds were made in DMSO then diluted in media in an intermediate plate. Compound was transferred from the intermediate plate to the cell plate with the top dose at a final concentration of 10 uM in the well. Final DMSO concentration was kept at or below 0.25%. Final volume was 100 uL for 96-well plate and 50 uL for 384-well plate. The cell plate was then placed in an incubator at 37° C. with 5% CO2 for 24 hours.
(§4) The cells were then gently washed with 50 uL-100 uL cold PBS before proceeding to addition of lysis buffer. 30 uL-50 uL of room temperature lysis buffer with DNAse I (and optionally RNAsin) was added to each well. Cells were shaken/mixed thoroughly at room temperature for 5-10 minutes for lysis to take place and then 3 uL-5 uL of room temperature stop solution was added and wells were shaken/mixed again. After 2-5 minutes, the cell lysate plate was transferred to ice for RT-qPCR reaction setup. The lysates could also be frozen at −80° C. for later use.
(§5) In some cases, a direct lysis buffer was used. An appropriate volume of 3× lysis buffer (10 mM Tris, 150 mM NaCl, 1.5%-2.5% Igepal and 0.1-1 U/uL RNAsin, pH 7.4) was directly added to either K562 or A673 cells in media and mixed by pipetting 3 times. The plates were then incubated at room temperature with shaking/rocking for 20-50 minutes to allow for lysis to take place. After this time, the cell lysate plate was transferred to ice to set up for the RT-qPCR reactions. The lysates could also be frozen at −80° C. for later use.
(§6) To set up 10 uL RT-qPCR reactions, cell lysates were transferred to 384-well qPCR plates containing the master mix according to the table below. The plates were sealed, gently vortexed, and spun down before the run. The volumes were adjusted accordingly in some instances where the reaction was carried in 20 uL. The table below summarizes the components of the RT-qPCR reactions:
(§7) The RT-qPCR reaction was performed using a QuantStudio (ThermoFisher) under the following fast cycling conditions. […]

[2] = system: HTT CJ mRNA; assay: Gene panel canonical junction qPCR assay: HTT; settings: Table 3, concentration having 50% response in CJ decrease, read-out: HTT IC50 (decrease in CJ mRNA levels)
Procedure: as §1, §2, §3, §4, §5, §6, §7

[3] = system: Target C CJ mRNA; assay: Gene panel canonical junction qPCR assay: Target C; settings: Table 3, concentration having 50% response in CJ decrease, read-out: Target C IC50 (decrease in CJ mRNA levels)
Procedure: as §1, §2, §3, §4, §5, §6, §7

[4] = system: HTT CJ mRNA; assay: Splicing assay (RT-qPCR): decrease in HTT canonical junction (CJ) mRNA; settings: A673 or K562 cells, 24 hours treatment; concentration having 50% response in CJ mRNA decrease
Procedure: as §1, §2, §3, §4, §5, §6, §7

[5] = system: HTT AJ mRNA; assay: Splicing assay (RT-qPCR): increase in HTT alternative junction (AJ) mRNA; settings: A673 or K562 cells, 24 hours treatment; concentration having 50% response in AJ mRNA increase
Procedure: as §1, §2, §3, §4, §5, §6, §7

Row | Structure (SMILES) | IC50 [1] | IC50 [2] | IC50 [3] | AC50 [4] | AC50 [5]
1 | Cc1cn2nc(NC(=O)c3sc([C@@H]4CCN[C@H](C)C4)cc3F)cc(C)c2n1 [Compound 101, N-[2,8-dimethylimidazo[1,2-b]pyridazin-6-yl]-3-fluoro-5-[(2R,4R)-2-methylpiperidin-4-yl] thiophene-2-carboxamide] | < 0.1 µM | 0.1 to 1 µM | 0.1 to 1 µM | 0.1 to 1 µM | 0.1 to 1 µM
2 | Cc1cn2nc(NC(=O)c3sc([C@H]4CCN[C@@H](C)C4)cc3F)cc(C)c2n1 [Compound 102, N-[2,8-dimethylimidazo[1,2-b]pyridazin-6-yl]-3-fluoro-5-[(2S,4S)-2-methylpiperidin-4-yl] thiophene-2-carboxamide] | 0.1 to 1 µM | 0.1 to 1 µM | 1 to 10 µM | 0.1 to 1 µM | 1 to 10 µM
3 | Cc1cn2nc(NC(=O)c3sc([C@H]4CCN[C@H](C)C4)cc3F)cc(C)c2n1 [Compound 103, N-[2,8-dimethylimidazo[1,2-b]pyridazin-6-yl]-3-fluoro-5-[(2R,4S)-2-methylpiperidin-4-yl] thiophene-2-carboxamide] | < 0.1 µM | 0.1 to 1 µM | 1 to 10 µM | 0.1 to 1 µM | 0.1 to 1 µM
4 | Cc1cn2nc(NC(=O)c3sc([C@@H]4CCN[C@@H](C)C4)cc3F)cc(C)c2n1 [Compound 104, N-[2,8-dimethylimidazo[1,2-b]pyridazin-6-yl]-3-fluoro-5-[(2S,4R)-2-methylpiperidin-4-yl]thiophene-2-carboxamide] | < 0.1 µM | < 0.1 µM | 0.1 to 1 µM | < 0.1 µM | 0.1 to 1 µM
5 | Cc1cn2cc(-c3cc(F)c(C(=O)NC4CCN(C)CC4)s3)nc2c(C)n1 [Compound 109, 5-[6,8-dimethylimidazo[1,2-a]pyrazin-2-yl]-3-fluoro-N-(1-methylpiperidin-4-yl)thiophene-2-carboxamide] |  |  |  | 1 to 10 µM | > 10 µM
6 | Cc1cn2cc(-c3cc(F)c(C(=O)N[C@H]4CCN[C@@H](C)C4)s3)nc2c(C)n1 [Compound 112] |  |  |  | > 10 µM | > 10 µM
7 | Cc1cn2cc(-c3cc(F)c(C(=O)N[C@H]4CCN[C@H](C)C4)s3)nc2c(C)n1 [Compound 113] |  |  |  | 0.1 to 1 µM | > 10 µM
8 | Cc1cn2cc(NC(=O)c3sc([C@@H]4CCN[C@H](C)C4)cc3F)cc(F)c2n1 [Compound 114, 3-fluoro-N-[8-fluoro-2-methylimidazo[1,2-a]pyridin-6-yl]-5-[(2R,4R)-2-methylpiperidin-4-yl]thiophene-2-carboxamide] | < 0.1 µM | 0.1 to 1 µM | 1 to 10 µM | 0.1 to 1 µM | 0.1 to 1 µM
9 | Cc1cn2cc(NC(=O)c3sc([C@H]4CCN[C@@H](C)C4)cc3F)cc(F)c2n1 [Compound 115, 3-fluoro-N-[8-fluoro-2-methylimidazo[1,2-a]pyridin-6-yl]-5-[(2S,4S)-2-methylpiperidin-4-yl]thiophene-2-carboxamide] | 0.1 to 1 µM | 0.1 to 1 µM |  | 0.1 to 1 µM | 0.1 to 1 µM
10 | Cc1cn2cc(NC(=O)c3ccc(N4CCNC(C)C4)s3)cc(F)c2n1 (centres unmarked) [Compound 122, N-[8-fluoro-2-methylimidazo[1,2-a]-pyridin-6-yl]-5-(3-methylpip-erazin-1-yl)-thiophene-2-carboxamide] | 0.1 to 1 µM | > 0.01 µM |  | > 10 µM | > 10 µM
11 | Cc1cn2cc(NC(=O)c3sc(N4CCNCC4)cc3F)cc(F)c2n1 [Compound 126, 3-fluoro-N-[8-fluoro-2-methylimidazo[1,2-a]pyridin-6-yl]-5-(piperazin-1-yl)thiophene-2-carboxamide] | 0.1 to 1 µM | 1 to 10 µM |  | 1 to 10 µM | 1 to 10 µM
12 | Cc1cn2cc(NC(=O)c3sc(N4CCNC(C)C4)cc3F)cc(F)c2n1 (centres unmarked) [Compound 128, 3-fluoro-N-[8-fluoro-2-methylimidazo[1,2-a]pyridin-6-yl]-5-(3-methylpiperazin-1-yl)thiophene-2-carboxamide] | 0.1 to 1 µM | 1 to 10 µM |  | 1 to 10 µM | > 10 µM
13 | CCC1CN(c2cc(F)c(C(=O)Nc3cc(F)c4nc(C)cn4c3)s2)CCN1 (centres unmarked) [Compound 130, 5-(3-ethylpiperazin-1-yl)-3-fluoro-N-[8-fluoro-2-methylimidazo[1,2-a]pyridin-6-yl]thiophene-2-carboxamide] |  |  |  | 1 to 10 µM | > 10 µM
14 | Cc1cn2cc(NC(=O)c3sc(N4CC5(CN(C)C5)C4)cc3F)cc(F)c2n1 [Compound 135, 3-fluoro-N-[8-fluoro-2-methylimidazo[1,2-a]pyridin-6-yl]-5-[6-methyl-2,6-diazaspiro[3.3]heptan-2-yl]thiophene-2-carboxamide] |  |  |  | 1 to 10 µM | > 10 µM
15 | Cc1cn2cc(NC(=O)c3sc(N4CCC(N(C)C)CC4)cc3F)cc(F)c2n1 [Compound 140, 5-[4-(dimethylamino)piperidin-1-yl]-3-fluoro-N-[8-fluoro-2-methylimidazo[1,2-a]pyridin-6-yl]thiophene-2-carboxamide] |  |  |  | 1 to 10 µM | 0.1 to 1 µM
16 | Cc1cn2cc(NC(=O)c3sc(C4CCNCC4)cc3F)cc(F)c2n1 [Compound 144, 3-fluoro-N-[8-fluoro-2-methylimidazo[1,2-a]pyridin-6-yl]-5-(piperidin-4-yl) thiophene-2-carboxamide] | < 0.1 µM | 0.1 to 1 µM |  | 0.1 to 1 µM | 0.1 to 1 µM
17 | Cc1cn2cc(NC(=O)c3sc(C4CC(C)(C)NC(C)(C)C4)cc3F)cc(F)c2n1 [Compound 148, 3-fluoro-N-[8-fluoro-2-methylimidazo[1,2-a]pyridin-6-yl]-5-(2,2,6,6-tetramethylpiperidin-4-yl)thiophene-2-carboxamide] |  |  |  | 0.1 to 1 µM | 0.1 to 1 µM
18 | Cc1cn2cc(NC(=O)c3sc(N4CCNC(C)C4)cc3F)nc2c(C)n1 (centres unmarked) [Compound 168, N-[6,8-dimethylimidazo[1,2-a]pyrazin-2-yl]-3-fluoro-5-(3-methylpiperazin-1-yl)thiophene-2-carboxamide] |  |  |  | 1 to 10 µM | > 10 µM
19 | Cc1cn2cc(NC(=O)c3sc(N4CCNC(C)C4)c(Cl)c3Cl)cc(F)c2n1 (centres unmarked) [Compound 186] | 1 to 10 µM | > 0.01 µM |  | > 10 µM | > 10 µM
